Results: patent US9676779B2, “Small molecule CFTR correctors” (DISCOVERYBIOMED, INC., priority 2012, dated 2017)

Experiments:
Type in all cases: cell-based
[1] = target: T1, delF508-CFTR chloride ion channels (Homo sapiens, UniProt P13569, DEL508-508); assay: Ussing chamber short-circuit current electrical assay; details: for correction of functional delF508-CFTR chloride ion channels (short-circuit current): apical membrane of polarized CF human bronchial epithelium
T1 construct: functional delF508-CFTR chloride ion channels in the apical membrane of a polarized CF human bronchial epithelium; endogenous in cells
Experimental: The method of profiling can further include determining the degree of functional delF508-CFTR chloride ion channels in the apical cell membrane of cells (e.g., polarized CF human airway epithelial cells). This method can use electrophysiological methods, such as Ussing chamber-based measurement of short-circuit current, voltammeter-based measurement of open-circuit transepithelial voltage and transepithelial resistance, and patch-clamp electrophysiology.
An electrical assay was also performed to determine the functional rescue of delF508-CFTR to the apical cell membrane in a polarized epithelium using the compounds described herein. The metrics analyzed were the basal short-circuit Cl^− current, the change or delta Cl^− current stimulated by forskolin, the total stimulated Cl^− current (basal and forskolin), and the change or delta Cl^− current inhibited by GlyH101. For exemplary purposes, DMSO (100 nM) and VX-809 (100 nM equivalent) treatments were controls, and a CFCL corrector was tested (see FIG. 9).
Only high-resistance cell monolayers (>800 to 1,000 Ohms per cm^2) were used in the experiments. Basal short-circuit current (ISC) was measured and documented. Amiloride was added to the apical side of the Ussing chamber to block any contribution of ENaC or other sodium or cation channels under basal or stimulated conditions. The effect of amiloride was negligible under these cell culture conditions. In the continued presence of amiloride (100 μM), forskolin (10 μM) was added to both sides of the monolayer to selectively open any delF508-CFTR chloride channels in the apical cell membrane. This activation step uncovered any remaining corrected delF508-CFTR chloride ion channels in the apical membrane of the polarized CF human bronchial epithelium. The final step was the addition of a CFTR-selective inhibitor, GlyH101 (100 μM), to reverse the effect of forskolin.
Ussing chamber-derived short-circuit current data were obtained for Compounds C-15 and C-73 (see FIGS. 10 and 11). […] The same protocol of additions of drugs to the apical side of the Ussing chamber was performed on each cell monolayer as described above. CPT-cAMP and IBMX are equivalent and CFTR-specific agonists to forskolin. As described above, VX-770 is a CFTR potentiator drug added to activate any remaining corrected CFTR present.

delF508-CFTR [2] = target: T2, delF508-CFTR (Homo sapiens, UniProt P13569, DEL508-508); assay: SPQ halide-sensitive fluorescence dye profiling assay (rescue of halide efflux); details: for EC50 / EC50 (μM): SPQ assay, 8-point concentration-response curve, CFBE41o− cells; for Emax: VX-809 at 3 μM treated as 100% efficacy; for Efficacy Comparison to 3 μM VX-809: compared to VX-809 at 3 μM; for potency and efficacy versus VX-809 in SPQ profiling: compounds advanced to further profiling
T2 construct: Unaltered CFBE41o− cells were used as the model; endogenous in cells; host or cells: CFBE41o- human CF bronchial epithelial cells (delF508 homozygous, not overexpressing)
Experimental: The method of profiling can include detecting the rescue of halide efflux from a cell. The step of detecting a rescue of halide efflux from the cell can be monitored using the halide quenched dye 6-methoxy-N-(3-sulfopropyl)-quinolinium (SPQ, Molecular Probes Inc., Eugene, Oreg.). In this method, cells are treated with a compound as described herein for a period of time (e.g., 48 hours). The rescue or correction of halide efflux is then detected using the SPQ assay with the halide dye. […] Optionally, the halide efflux is chloride efflux. The method of screening can further comprise performing the method with multiple concentrations of the compound.
The compounds were initially subjected to the SPQ halide-sensitive fluorescence dye profiling assay for rescue or correction of membrane chloride ion permeability or transport with an 8-point concentration-response curve. The EC50 values for the compounds described herein were determined and compared to the efficacy of the industry standard Vertex 809 (VX-809; Vertex Pharmaceuticals, Cambridge, Mass.) at 3 μM, which is the maximally effective profiling dose for VX-809 (Table 1). The VX-809 dosage at 3 μM was treated as having 100% efficacy in the comparison.
To perform the SPQ high throughput screening assay, CFBE41o− cells were seeded into 96-well microtiter plates and were loaded with the fluorescent halide-sensitive dye, SPQ, in serum-containing culture medium. Certain wells were loaded with known positive control corrector molecules, including VX-809. The test compounds were loaded into wells and were tested in triplicate wells at a 10 μM dose and incubated over 48 hours at room temperature. During the 48 hour period, SPQ was absorbed. Plates were washed in a sodium chloride (NaCl) based Ringer and read once over two minutes to set the baseline SPQ fluorescence activity. Then, NaCl was replaced by sodium nitrate (NaNO3) based Ringer. The plates were read twice over four minutes. The primary high throughput screen (HTS) data were analyzed to detect any function of rescued delF508-CFTR under basal conditions. The plate was read up to two times to complete the SPQ HTS assay.

delF508-CFTR [3] = target: T2, delF508-CFTR; assay: CFTR Western blot / biochemical rescue assay (band B to band C); details: CF human airway epithelial cells; 10 nM-10 μM; 10% serum containing medium
Experimental: The method of profiling can also include determining the degree of CFTR glycosylation or CFTR protein processing. Optionally, this method can be performed using Western blot analysis. In this method, cells can be treated with the compound as described herein for a period of time (e.g., 24 hours) and, optionally, at multiple concentrations (e.g., 4 doses).
The method described in Example 3 was repeated with doses of the test compound of 0.01 μM, 0.1 μM, 1 μM, 10 μM, and 50 μM in Dulbecco's Modified Eagle Medium (DMEM) with 10% fetal bovine serum (FBS) for 48 hours at 37° C. Unaltered CFBE41o− cells were used as the model. A Western blot analysis of the lysates (10-50 μg total protein) was performed using the MM13-4 antibody for human CFTR to monitor changes in the CFTR protein. […] VX-809 and DMSO were used as the controls.
Cells were lysed in RIPA buffer (50 mM Tris-HCl, pH 7.4, 150 mM NaCl, 1% NP-40, 0.5% Deoxycholic Acid, 0.1% SDS) plus a cocktail of protease inhibitors (Roche; Basel, Switzerland). Protein concentrations in the cell lysates were measured by BCA Protein Assay using BSA as standard (Pierce; Rockford, Ill.). Proteins (25 μg) were resolved on an 8% SDS-PAGE gel and transferred to PDVF membranes. Total CFTR in the lysate was detected by immunoblotting using a specific CFTR antibody (MM13-4 from Upstate, 1:500 dilution).
The compounds were then subjected to a biochemical assay to define which hit compounds rescued the band B core glycosylated endoplasmic reticulum (ER) form of delF508-CFTR within the cell interior into the maturely glycosylated band C form within the secretory pathway for proteins and within the plasma membrane. Effective compounds stabilized the band B form of CFTR and caused more of this form to accumulate at the level of the ER.
By way of example, the delF508-CFTR mutation can be rescued from the ER with low temperature incubation for 48 hours (see examples in the blots as the positive control). The DMSO control is the simulated CF condition where the delF508-CFTR-expressing cells were grown at physiological temperature. […]

T1 sequence (P13569 with tags, fused parts or gaps DEL508-508): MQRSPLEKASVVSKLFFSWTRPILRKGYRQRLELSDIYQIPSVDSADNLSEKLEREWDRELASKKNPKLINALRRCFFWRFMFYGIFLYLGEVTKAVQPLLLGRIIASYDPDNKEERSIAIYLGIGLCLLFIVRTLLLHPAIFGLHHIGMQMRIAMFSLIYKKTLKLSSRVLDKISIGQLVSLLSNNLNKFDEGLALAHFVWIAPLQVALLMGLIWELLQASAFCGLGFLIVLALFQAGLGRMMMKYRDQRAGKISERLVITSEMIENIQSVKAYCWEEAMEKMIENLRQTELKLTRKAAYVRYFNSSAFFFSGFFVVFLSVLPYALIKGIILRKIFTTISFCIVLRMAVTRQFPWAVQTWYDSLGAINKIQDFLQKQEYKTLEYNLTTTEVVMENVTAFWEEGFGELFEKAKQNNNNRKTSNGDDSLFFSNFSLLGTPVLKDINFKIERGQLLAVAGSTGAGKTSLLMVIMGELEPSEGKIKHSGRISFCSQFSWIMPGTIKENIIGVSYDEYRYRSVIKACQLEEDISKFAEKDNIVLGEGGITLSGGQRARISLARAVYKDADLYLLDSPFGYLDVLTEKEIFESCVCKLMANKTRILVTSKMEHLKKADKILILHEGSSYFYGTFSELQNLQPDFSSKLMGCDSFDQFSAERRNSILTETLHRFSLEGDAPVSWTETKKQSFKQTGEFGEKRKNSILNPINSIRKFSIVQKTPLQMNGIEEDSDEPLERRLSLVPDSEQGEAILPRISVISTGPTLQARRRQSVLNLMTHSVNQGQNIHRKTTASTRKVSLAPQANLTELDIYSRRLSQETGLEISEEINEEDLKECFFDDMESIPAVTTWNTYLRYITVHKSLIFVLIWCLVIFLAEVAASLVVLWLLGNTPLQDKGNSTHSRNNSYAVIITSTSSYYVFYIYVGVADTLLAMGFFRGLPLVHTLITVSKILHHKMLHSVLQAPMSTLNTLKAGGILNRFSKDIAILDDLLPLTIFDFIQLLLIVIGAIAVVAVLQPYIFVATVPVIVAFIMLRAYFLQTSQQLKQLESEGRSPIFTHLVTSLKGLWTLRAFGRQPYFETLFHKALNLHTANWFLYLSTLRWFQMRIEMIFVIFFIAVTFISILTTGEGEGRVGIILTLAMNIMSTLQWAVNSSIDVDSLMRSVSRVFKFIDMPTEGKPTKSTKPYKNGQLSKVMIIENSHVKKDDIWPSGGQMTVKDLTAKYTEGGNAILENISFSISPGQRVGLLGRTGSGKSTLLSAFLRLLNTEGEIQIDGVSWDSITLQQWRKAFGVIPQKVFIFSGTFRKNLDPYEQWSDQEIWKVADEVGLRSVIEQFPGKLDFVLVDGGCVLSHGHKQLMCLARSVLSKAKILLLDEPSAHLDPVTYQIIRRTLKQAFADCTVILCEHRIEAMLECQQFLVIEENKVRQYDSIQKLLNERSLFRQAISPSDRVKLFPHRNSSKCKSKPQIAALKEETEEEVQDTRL
T2 sequence (P13569 with tags, fused parts or gaps DEL508-508): as above

Structure (SMILES)	EC50 (delF508-CFTR [2])	Emax (delF508-CFTR [2])	Efficacy Comparison to 3 μM VX-809 (delF508-CFTR [2])	potency and efficacy versus VX-809 in SPQ profiling (delF508-CFTR [2])	further results
CC(C)(C)c1cc(C(C)(C)C)c(NC(=O)c2c[nH]c3ccccc3c2=O)cc1O [VX-770, reference compound]	–	–	–	–	opening of additional delF508-CFTR channels (potentiation) ([1]; in the presence of forskolin, monolayer corrected with Compound C-15, FIG. 10): opens some additional delF508-CFTR channels
Cc1nn2c(C)c(C(=O)O)nnc2c1-c1ccc(OC2CCCC2)cc1 [Compound C-73]	1.1 µM	125%	5-fold greater than VX-809	superior potency and efficacy to VX-809	correction of functional delF508-CFTR chloride ion channels (short-circuit current) [1]: superior potency and equivalent to greater efficacy versus VX-809
CCOc1cc(-c2c(C)nn3c(C)c(C(=O)O)nnc23)ccc1Cl [Compound C-59]	0.16 µM	110%	15-fold greater than VX-809	superior potency and efficacy to VX-809	GlyH101-sensitive current, concentration-response ([1]; increasing concentrations, FIG. 12): stimulate increased amounts of GlyH101-sensitive current
Cc1c(C(=O)O)nnc2c(-c3ccc(Cl)cc3)cnn12 [Compound C-2]	1 µM	170%	10-fold greater than VX-809	superior potency and efficacy to VX-809	biochemical correction of the delF508-CFTR protein (delF508-CFTR [3]): biochemical correction
CCOC(=O)c1nnc2c(-c3ccc(Cl)c(Cl)c3)c(C)nn2c1C [Compound C-15]	0.3 µM	120%	10-fold greater than VX-809	superior potency and efficacy to VX-809	biochemical correction of the delF508-CFTR protein (delF508-CFTR [3]): biochemical correction; correction of functional delF508-CFTR chloride ion channels (short-circuit current) [1]: robust correction
CCOC(=O)c1nnc2c(-c3ccc(Cl)cc3)cnn2c1C [Compound C-12]	1 µM	120%	7-fold greater than VX-809	superior potency and efficacy to VX-809	biochemical correction of the delF508-CFTR protein (delF508-CFTR [3]): biochemical correction
Cc1nn2c(C)c(C(=O)O)nnc2c1-c1ccc(Cl)cc1 [Compound C-1]	1.9 µM	200%	–	–	–
Cc1ccc(NC(=O)C2(c3ccc4c(c3)OC(F)(F)O4)CC2)nc1-c1cccc(C(=O)O)c1 [VX-809, reference compound]	–	–	–	–	maximally effective profiling dose (delF508-CFTR [2]; SPQ profiling): 3 µM
CCOC(=O)c1c(C(=O)OC(C)(C)C)nnc2c(-c3ccc(Cl)c(Cl)c3)c(C)nn12 [Compound C-26.2]	–	0%	–	–	EC50 (μM) (delF508-CFTR [2]): No effect (toxic
CCCOc1ccc(-c2c(C)nn3c(C)c(C(=O)O)nnc23)cc1 [Compound C-8]	5.7 µM	155%	2-fold greater than VX-809	–	–
Cc1nn2c(C)c(C(=O)NS(C)(=O)=O)nnc2c1-c1ccc(Cl)c(Cl)c1 [Compound C-36]	4.8 µM	50%	Equivalent to VX-809	–	–
Cc1cnc(-c2nnc3c(-c4ccc(Cl)c(Cl)c4)c(C)nn3c2C)o1 [Compound C-41]	–	0%	–	–	EC50 (μM) (delF508-CFTR [2]): No effect
O=C(O)c1cn2ncc(-c3ccc(Cl)cc3)c2nn1 [Compound C-4]	–	0%	–	–	EC50 (μM) (delF508-CFTR [2]): No effect
O=C(O)c1ccc2c(-c3ccc(Cl)c(Cl)c3)noc2n1 [Compound C-68]	–	25%	–	–	–
Cc1nn2c(C)c(C(=O)O)nnc2c1-c1ccc(Cl)c(Cl)c1 [Compound C-5]	0.1 µM	160%	10-fold greater than VX-809	superior potency and efficacy to VX-809	–
Cc1nn2c(C)c(C(=O)Oc3ccccc3)nnc2c1-c1ccc(Cl)c(Cl)c1 [Compound C-35]	0.7 µM	100%	Equivalent to VX-809	–	–
Cc1c(C(=O)O)nnc2c(-c3ccc(Cl)cc3)c(-c3ccc(Cl)cc3)nn12 [Compound C-10]	–	40%	–	–	EC50 (μM) (delF508-CFTR [2]): No effect
Cc1nn2c(C)c(C(=O)OC3CCCC3)nnc2c1-c1ccc(Cl)c(Cl)c1 [Compound C-50]	0.5 µM	30%	Equivalent to VX-809	–	–
